Source: patent US6344324B2, “Quantification of cellular injury using expression of a fluorescent protein under the control of the GADD153 promoter” (Research Development Foundation, priority 2000, dated 2002)
“And” between values parts separate entries of the source, which are not always exact repeats. Equal entries are not always repeated. Where two headings read alike, the source gives them in different places. Starred links: 1 amine or outer side, 2 acyl side, 3 side chain; linkers in the order of their positions; H or OH if unused. Positions of bridges follow the written chain, without caps; N, C: chain ends. Non-standard residues stand in square brackets, D forms with d. Residues, ends and D or L forms follow the SMILES beside them. Chains are numbered I, II in the order given. Actinocin(9to1) = Cc1c2oc3c(C)ccc(C(=O)[*:1])c3nc-2c(C(=O)[*:2])c(N)c1=O; NMeV = CN[C@H](C(=O)O)C(C)C; Sar = CNCC(=O)O

Key:
[1] = system: T10b45 cells; assay: Clonogenic (colony-forming) assay; type: cell-based, human
[2] = system: GADD153 promoter activity in T10b45 cells
Method: T10b45 cells were harvested 4 days following exposure to the injurious agent, washed once and resuspended in PBS. Cytometric analysis was performed using a Becton Dickinson (Mountain View, Calif.) FACScan equipped with an argon ion laser tuned to 488 nm to excite EGFP, and a 515/545 bandpass filter to monitor the green fluorescence emitted by EGFP. The acquired data were analyzed with the CELLQuest program. Twenty thousand events were collected for each sample. An analytical gate was set such that less than 0.2% of the untreated cells exceeded the gate. The relative fold induction was calculated by dividing the percent of treated cells in the gated region by that of untreated cells harvested at same time.
Three hundred thousand T10b45 cells were seeded into 60 mm tissue culture dishes and treated 24 h later so that all experiments were performed with cells in the logarithmic phase of growth. The chemical agents were added directly to the tissue culture media. At the indicated times, the medium was removed and the cells were washed twice with serum-free medium and then incubated for 4 days in fresh drug-free medium at 37° C. following which they were subjected to flow cytometric analysis.

[3] = system: T10b45 xenografts; assay: EGFP expression in T10b45 xenografts in vivo; design: species or system BALB/c nu/nu mice; conditions: for tumor cells expressing EGFP: tumors harvested 4 days later, ± SD
[4] = system: GADD153 mRNA; conditions: UMSCC10b xenografts in nude mice, 50 mg/kg, 24 hr post-treatment, relative to untreated mice; ± SD; cited from earlier work
[5] = in this strain (BALB/c nu/nu mice); cited from earlier work
[6] = colony-forming assay, 1 hour drug exposure, colonies scored after 14 days, mean ± SD, n = 3
[7] = T10b45 cells, 4 days after the insult, conditions of maximal activation (Table 1)
[8] = quotient of fold increase in EGFP-expressing cells and Pt in DNA at 10 × IC50, mean ± SD, n = 3
[9] = 500 μM, 1 h exposure, GFP 4 days after treatment, relative to untreated control
[10] = 50 μM, 1 h exposure, GFP 4 days after treatment, relative to untreated control
[11] = 50 nM, 4 h exposure, GFP 4 days after treatment, relative to untreated control

N.N.O=C([O-])C1(C(=O)[O-])CCC1.[Pt+2] [Carboplatin, carboplatin]
IC50 [1, 6]: 10.7 ± 0.83 µM
GFP fold induction at 10 × IC50 [2]: 23 ± 2.6
Induction Ratio ([2]; 200 μM, 42 h exposure (so in the source), GFP 4 days after treatment, relative to untreated control): 33
activation of EGFP expression (in words) [2, 7]: strongly activated
Relative EGFP activation potency at 10 × IC50 [2, 8]: 750.4 ± 22.1 fold induction/ng Pt/ug DNA

N.N.[Cl][Pt+2][Cl] [Transplatin, transplatin]
IC50 [1, 6]: 379 ± 31.6 µM
GFP fold induction at 10 × IC50 [2]: 10 ± 2.0
Induction Ratio [2, 9]: 1
activation of EGFP expression (in words) [2, 7]: failed to produce significant activation
Relative EGFP activation potency at 10 × IC50 [2, 8]: 41.3 ± 8.5 fold induction/ng Pt/ug DNA

CC[C@@]1(O)C(=O)OCc2c1cc1n(c2=O)Cc2cc3c(CN(C)C)c(O)ccc3nc2-1 [Topotecan]
Induction Ratio ([2]; 20 nM, 4 h exposure, GFP 4 days after treatment, relative to untreated control): 1.3
activation of EGFP expression (in words) [2, 7]: relatively impotent

C[C@@]1(CO)[C@H](O)CC[C@@]2(C)[C@H]1CC[C@H]1C[C@@H]3C[C@@]12CC[C@]3(O)CO [Aphidicolin, aphidicolin]
Induction Ratio ([2]; 20 μM, 24 h exposure, GFP 4 days after treatment, relative to untreated control): 2.5
activation of EGFP expression (in words) [2, 7]: relatively impotent

OO [Hydrogen peroxide, hydrogen peroxide]
Induction Ratio [2, 9]: 13
activation of EGFP expression (in words) [2, 7]: strongly activated

CC(=O)[O][Pt]([NH2])([Cl])([Cl])([NH]C1CCCCC1)[O]C(C)=O [JM216]
IC50 [1, 6]: 4.5 ± 0.35 µM
GFP fold induction at 10 × IC50 [2]: 11 ± 3.2
Induction Ratio ([2]; 150 μM, 1 h exposure, GFP 4 days after treatment, relative to untreated control): 43
activation of EGFP expression (in words) [2, 7]: strongly activated
Relative EGFP activation potency at 10 × IC50 [2, 8]: 70.6 ± 20.5 fold induction/ng Pt/ug DNA

N.N.[Cl][Pt][Cl] [Cisplatin]
fold increase in the fraction of EGFP-expressing cells ([3]; 5 mg/kg single i.p., 4 days, relative to untreated tumors): 3.8 fold
fold increase in the fraction of cells expressing EGFP ([3]; 15 mg/kg single i.p., 4 days, relative to untreated tumors): 29 fold and 29.2±6.2 fold
tumor cells expressing EGFP ([3]; cisplatin 5 mg/kg single i.p.): 0.49±0.5%
tumor cells expressing EGFP ([3]; cisplatin 15 mg/kg single i.p., untreated 0.13±0.02 %): 3.8±0.8%
GADD153 mRNA level increase [4]: 3.0±0.4 fold
IC50 [1, 6]: 4.2 ± 0.03 µM
LD10 [5]: 12 mg/kg
GFP fold induction at 10 × IC50 [2]: 38 ± 3.2
Relative EGFP activation potency at 10 × IC50 [2]: 825.0 ± 29.4 fold induction/ng Pt/ug DNA
Induction Ratio [2, 10]: 42
activation of EGFP expression (in words) [2, 7]: strongly activated

N[C@@H]1CCCC[C@H]1N.[Cl][Pt+2]([Cl])([Cl])[Cl] [Tetraplatin, tetraplatin]
IC50 [1, 6]: 3.3 ± 0.17 µM
GFP fold induction at 10 × IC50 [2]: 120 ± 7.8
Induction Ratio [2, 10]: 143
activation of EGFP expression (in words) [2, 7]: strongly activated
Relative EGFP activation potency at 10 × IC50 [2, 8]: 10482.7 ± 516.9 fold induction/ng Pt/ug DNA

Cc1c2oc3c(C)ccc(C(=O)N[C@@H]4C(=O)N[C@H](C(C)C)C(=O)N5CCC[C@H]5C(=O)N(C)CC(=O)N(C)[C@@H](C(C)C)C(=O)O[C@@H]4C)c3nc-2c(C(=O)N[C@@H]2C(=O)N[C@H](C(C)C)C(=O)N3CCC[C@H]3C(=O)N(C)CC(=O)N(C)[C@@H](C(C)C)C(=O)O[C@@H]2C)c(N)c1=O [Actinomycin D, actinomycin D] (I: T[dV]P[Sar][NMeV] / II: T[dV]P[Sar][NMeV]; ester I:1-I:C, II:1-II:C; linker I:N-II:N via Actinocin(9to1))
Induction Ratio [2]: 7.6
activation of EGFP expression (in words) [2]: strongly activated

COc1cccc2c1C(=O)c1c(O)c3c(c(O)c1C2=O)C[C@@](O)(C(=O)CO)C[C@@H]3O[C@H]1C[C@H](N)[C@H](O)[C@H](C)O1 [Doxorubicin, doxorubicin]
Induction Ratio ([2]; 100 nM, 4 h exposure, GFP 4 days after treatment, relative to untreated control): 2.4
activation of EGFP expression (in words) [2, 7]: relatively impotent

CC(=O)O[C@H]1C(=O)[C@@]2(C)[C@H]([C@H](OC(=O)c3ccccc3)[C@]3(O)C[C@H](OC(=O)[C@H](O)[C@@H](NC(=O)c4ccccc4)c4ccccc4)C(C)=C1C3(C)C)[C@]1(OC(C)=O)CO[C@@H]1C[C@@H]2O [Paclitaxel, paclitaxel]
Induction Ratio ([2]; 70 nM, 4 h exposure, GFP 4 days after treatment, relative to untreated control): 2.8
activation of EGFP expression (in words) [2, 7]: relatively impotent

O=NN(CCCl)C(=O)NCCCl [BCNU]
Induction Ratio [2]: 4
activation of EGFP expression (in words) [2]: failed to produce significant activation

O=c1[nH]cc(F)c(=O)[nH]1 [5-Fluorouracil]
Induction Ratio ([2]; 50 μM, 4 h exposure, GFP 4 days after treatment, % GFP expressing cells relative to untreated control): 3.0
activation of EGFP expression (in words) [2, 7]: relatively impotent

O=C1[O][Pt]2([NH][C@@H]3CCCC[C@H]3[NH]2)[O]C1=O [Oxaliplatin]
IC50 [1]: 5.1 ± 0.29 µM
GFP fold induction at 10 × IC50 [2]: 100 ± 5.3
Induction Ratio [2]: 105
Relative EGFP activation potency at 10 × IC50 [2]: 5496.0 ± 655.6 fold induction/ng Pt/ug DNA
activation of EGFP expression (in words) [2]: strongly activated

Nc1ccn([C@@H]2O[C@H](CO)[C@@H](O)C2(F)F)c(=O)n1 [Gemcitabine, gemcitabine]
Induction Ratio [2, 11]: 0.6
activation of EGFP expression (in words) [2, 7]: relatively impotent

COc1cc([C@@H]2c3cc4c(cc3[C@@H](O[C@@H]3O[C@@H]5CO[C@@H](C)O[C@H]5[C@H](O)[C@H]3O)[C@H]3COC(=O)[C@H]23)OCO4)cc(OC)c1O [Etoposide, etoposide]
Induction Ratio ([2]; 5 μM, 4 h exposure, GFP 4 days after treatment, relative to untreated control): 4
activation of EGFP expression (in words) [2, 7]: relatively impotent

Cc1nc2ccc(CN(C)c3ccc(C(=O)N[C@@H](CCC(=O)O)C(=O)O)s3)cc2c(=O)[nH]1 [Raltitrexed]
Induction Ratio [2, 11]: 0.6
activation of EGFP expression (in words) [2, 7]: relatively impotent
